Paper PMC11286291, “A Light-Driven In Vitro Enzymatic Biosystem for the Synthesis of α-Farnesene from Methanol” (Biodesign Research, 2024)

Biological target: T1, AFS (Malus domestica, UniProt Q84LB2)
T1 construct: gene AFS1; N-terminal SUMO fusion, pET28a, E. coli BL21(DE3), Ni-NTA purified
T1 sequence (Q84LB2 1-576): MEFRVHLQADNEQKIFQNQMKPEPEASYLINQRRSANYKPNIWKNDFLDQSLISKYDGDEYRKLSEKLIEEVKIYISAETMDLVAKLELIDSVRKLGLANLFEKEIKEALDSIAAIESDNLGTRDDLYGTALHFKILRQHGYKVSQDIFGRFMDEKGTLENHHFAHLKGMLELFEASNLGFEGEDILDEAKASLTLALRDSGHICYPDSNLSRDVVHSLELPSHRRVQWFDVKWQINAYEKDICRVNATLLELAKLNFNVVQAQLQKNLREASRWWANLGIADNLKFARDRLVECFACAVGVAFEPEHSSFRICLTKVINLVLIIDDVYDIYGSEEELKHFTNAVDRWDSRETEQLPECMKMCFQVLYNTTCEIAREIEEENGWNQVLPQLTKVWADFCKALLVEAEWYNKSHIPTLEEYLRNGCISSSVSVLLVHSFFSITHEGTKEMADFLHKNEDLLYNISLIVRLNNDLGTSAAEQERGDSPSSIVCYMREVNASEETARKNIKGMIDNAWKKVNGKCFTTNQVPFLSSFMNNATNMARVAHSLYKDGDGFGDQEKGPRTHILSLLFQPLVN
Test: GC-MS of alpha-farnesene; FPP formed in situ from IPP by IDI and ISPA
Type: biochemical
Conditions: 100 mM Hepes pH 7.5, 2 mM IPP, room temperature

CC(C)=CCC/C(C)=C/CC/C(C)=C/COP(=O)(O)OP(=O)(O)O [farnesyl pyrophosphate]
GC-MS of alpha-farnesene; FPP formed in situ from IPP by IDI and ISPA: the yield of AFS was greater than that of MdF, with an α-farnesene yield
